From PMC3741380, “The N-Terminally Truncated µ3 and µ3-Like Opioid Receptors Are Transcribed from a Novel Promoter Upstream of Exon 2 in the Human OPRM1 Gene” (PLoS ONE, 2013)

Biological target: T1, hMOR-1 (Homo sapiens, UniProt P35372)
T1 construct: gene OPRM1; classical 7TM splice variant, C-terminal GFP fusion kept (pcDNA3-GFP), stably expressed in HEK 293 cells
Test: cell-based
Text: inhibition of forskolin-stimulated cAMP accumulation, [3H]-cAMP competition assay on hMOR-1

T1 sequence (P35372 whole entry, the tested form may be a part, canonical isoform): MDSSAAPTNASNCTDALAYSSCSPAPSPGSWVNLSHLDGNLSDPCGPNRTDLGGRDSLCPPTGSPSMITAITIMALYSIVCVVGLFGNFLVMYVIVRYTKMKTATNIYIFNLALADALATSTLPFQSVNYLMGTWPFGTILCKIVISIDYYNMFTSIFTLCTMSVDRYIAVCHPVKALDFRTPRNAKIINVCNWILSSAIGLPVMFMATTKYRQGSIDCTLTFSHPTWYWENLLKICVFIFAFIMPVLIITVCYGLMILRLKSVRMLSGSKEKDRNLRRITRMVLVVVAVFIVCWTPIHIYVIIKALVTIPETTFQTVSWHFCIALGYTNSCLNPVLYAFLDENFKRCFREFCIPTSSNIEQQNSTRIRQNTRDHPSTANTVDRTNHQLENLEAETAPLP

`CN1CC[C@]23c4c5ccc(O)c4O[C@H]2[C@@H](O[C@@H]2O[C@H](C(=O)O)[C@@H](O)[C@H](O)[C@H]2O)C=C[C@H]3[C@H]1C5` [M6G] was tested, and the IC50 was 27.3 ± 11.2 nM.
